Experimental data published in patent publication US10799495B2, “Aaptamine alkaloid derivatives and synthesis method and application thereof” (RENJI HOSPITAL, SHANGHAI JIAO TONG UNIVERSITY SCHOOL OF …, priority 2017, dated 2020).
Values after ≈ are worked out from the molar mass of the structure shown. Read-outs that look alike come from different tables or passages of the source.

What was measured:
Format in all cases: cell-based
[1] = test system: human lung cancer stem cell PC9-Oct4; test: In vitro anti-lung cancer stem cell test (CCK-8 cell viability), PC9-Oct4; conditions: read-out: Half effective inhibitory concentration IC50 against tumor cells
Description: (§1) In vitro anti-lung cancer stem cell test is carried out on the compounds AAP-1-6 of the present invention, and the lung cancer stem cell lines used are as follows:
(§2) Human lung cancer cell PC9 is purchased from ATCC with ATCC number 32727.
(§3) In addition, Oct4-GFP and Nanog-GFP are highly expressed by lentivirus transfection.
(§4) The original cell culture medium for Human lung cancer stem cells PC9-Nanog and PC9-Oct4 is discarded, 3 mL of PBS is added to rinse the cells twice; 500 μL of 0.25% trypsin is then added for digestion for 3 minutes at 37° C.; and 3 mL of a complete medium is added to terminate the digestion. The cells are pipetted gently with a pipette to make a single cell suspension; the single cell suspension is transferred to a 15 mL centrifuge tube and centrifuged at 800 rpm for 4 minutes; the supernatant is discarded, 6 mL of a complete medium is added to the centrifuge tube, and mixed by pipetting; counting is carried out to prepare […] single cell suspension; the suspension is added to a 96-well plate, 90 μL per well, (wells at the outer ring are not added with the suspension), and finally each well has 3000 cells; and the 96-well plate is incubated for 24 hours in a 37° C., 5% CO2 incubator.
(§5) 1 mg of each of the compounds AAP-1, AAP-2, AAP-3, AAP-4, AAP-5, and AAP-6 of the present invention is prepared into a 10 mM stock solution by using DMSO, and stored in a refrigerator with a temperature of 4° C. Thereafter, the stock solution is diluted with a medium to a 10 μM test solution. The final concentration is 10 μM in a 96-well plate, and the test solution is diluted three folds and added to the plate. Finally, the concentrations of the test solutions of the compounds of the present invention added to the plate are 10 μM, 3.3 μM, 1.1 μM, and 0.33 μM, respectively. The 96-well plate added with the compounds is incubated for 72 hours in a 37° C., 5% CO2 incubator. 72 hours later, 10 μL of CCK-8 solution is added to each well. 40 minutes to 60 minutes later, the absorbance at 450 nm, i.e., the OD value, is measured with a microplate reader. Cell viability is calculated after measuring the OD value of each group of cells. Cell viability (%)=(OD value of the treated group−OD value of the blank group)/(OD value of the blank control group−OD value of the blank group)×100%
(§6) The blank control group is not added with the compounds of the present invention, and the other steps are the same.
(§7) Meanwhile, the positive control drugs Cis-platinum (Shanghai Boliang Biotechnology Co., Ltd.) and Aaptamine (Reference: Enrique L. Larghi, Maria L. Bohn, Teodoro S. Kaufman, Aaptamine and related products. Their isolation, chemical syntheses, and biological activity, Tetrahedron 2009, 65 (22), 4257-4282 synthesis) are used as control groups for in vitro anti-tumor activity test, and the treatment method herein is the same as that for the compounds of the present invention.

[2] = test system: Trichophyton rubrum; test: In vitro antifungal drug sensitivity test (microdilution method), Trichophyton rubrum; conditions: for MIC: read-out: Antifungal activity MIC
From the text: (§8) A microdilution method (Pierce C G, Uppuluri P, Tristan A R, et al. A simple and reproducible 96-well plate-based method for the formation of fungal biofilms and its application to antifungal susceptibility testing [J]. Nat Protoc, 2008, 3 (9): 1494-1500.) is adopted, and its experimental procedure refers to the M38-A2 and M27-A2 solutions (Espinel-Ingroff A, Fothergill A, Fuller J, et al. Wild-type MIC distributions and epidemiological cutoff values for caspofungin and Aspergillus Spp. for the CLSI broth microdilution method (M38-A2 document) [J]. Antimicrobl Agents Chemother, 2011, 55 (6): 2855-2859.). Three tested strains (Candida albicans, Trichophyton mentaqrophytes and Trichophyton rubrum) are used as indicator bacteria to carry out in vitro antifungal drug sensitivity screening experiment for the compounds AAP-1-AAP6.
(§9) Control drugs: ketoconazole (purchased from Shanghai Boliang Biotechnology Co., Ltd.), Aaptamine (same as Embodiment 2).

[3] = test system: Trichophyton mentaqrophytes; test: In vitro antifungal drug sensitivity test (microdilution method), Trichophyton mentaqrophytes; conditions: for MIC: Trichophyton, read-out: Antifungal activity MIC
From the text: as §8, §9

[4] = test system: Candida albicans; test: In vitro antifungal drug sensitivity test (microdilution method), Candida albicans; conditions: for MIC: read-out: Antifungal activity MIC
From the text: as §8, §9

[5] = test system: human lung cancer stem cell PC9-Nanog; test: In vitro anti-lung cancer stem cell test (CCK-8 cell viability), PC9-Nanog; conditions: read-out: Half effective inhibitory concentration IC50 against tumor cells
Description: as §1, §2, §3, §4, §5, §6, §7

[6] = Homo sapiens, 72 h, PC9-Oct4 cells, 72 hours incubation, CCK-8
[7] = Trichophyton mentaqrophytes, microdilution
[8] = Homo sapiens, 72 h, PC9-Nanog cells, 72 hours incubation, CCK-8
[9] = PC9-Oct4 cells, 72 hours incubation, CCK-8
[10] = PC9-Nanog cells, 72 hours incubation, CCK-8

IC50 [1, 6] [µM]	MIC ([2]; microdilution) [µg/mL]	MIC [3, 7] [µg/mL]	MIC ([4]; microdilution) [µg/mL]	IC50 [5, 8] [µM]	Compound	IC50 [1, 9] [µM]	IC50 [5, 10] [µM]	Antifungal activity MIC ([2]; microdilution) [µg/mL]	further results
1.04 ± 0.11	12.5 (≈ 41.1 µM)	25 (≈ 82.1 µM)	> 30	1.24 ± 0.02	COc1cc2ccnc3c2c(c1OC)NC=C3c1ccccc1 [AAP-1, 8,9-dimethoxy-3-phenyl-1H-benzo[de][1,6]naphthyridine]				
7.22 ± 0.04	25 (≈ 82.1 µM)	25 (≈ 82.1 µM)	> 30	6.82 ± 0.16	COc1c(OC)c2c3c(nccc3c1-c1ccccc1)C=CN2 [AAP-2, 8,9-dimethoxy-7-phenyl-1H-benzo[de][1,6]naphthyridine]				
					N.N.[Cl][Pt][Cl] [Cis-platinum, reference compound]	3.24 ± 0.05	4.53 ± 0.03		
					COc1c(OC)c2c3c(nccc3c1-c1cccc(C(C)C)c1)C(c1cccc(C(C)C)c1)=CN2 [AAP-6, 3,7-bis(3-isopropyphenyl)-8,9dimethoxy-1H-benzo[de][1,6] naphthyridine]	3.82 ± 0.15	4.82 ± 0.12	>30	Antifungal activity MIC [3, 7]: >30 µg/mL; Antifungal activity MIC ([4]; microdilution): 25 µg/mL
					COc1cc2ccnc3c2c(c1OC)NC=C3 [Aaptamine]			>30	IC50 ([1]; Homo sapiens, 72 h): 8.44 ± 0.1 µM; MIC [2]: > 30 µg/mL; MIC [3]: > 30 µg/mL; MIC [4]: > 30 µg/mL; IC50 ([5]; Homo sapiens, 72 h): 10.1 ± 0.17 µM
	8 (≈ 15.1 µM)	8 (≈ 15.1 µM)	8 (≈ 15.1 µM)		CC(=O)N1CCN(c2ccc(OCC3COC(Cn4ccnc4)(c4ccc(Cl)cc4Cl)O3)cc2)CC1 (centres unmarked) [Ketoconazole, ketoconazole, reference compound]				
